Measured values from ChEMBL document CHEMBL4651402, “Screening of ~5500 FDA-approved drugs and clinical candidates for anti-SARS-CoV-2 activity” (2021).
Square brackets hold non-standard residues; d marks the D form. Peptide text beside a SMILES is read from it.

Test system: SARS-CoV-2
Assay: microbe, parasite or virus in culture
Settings: Severe acute respiratory syndrome coronavirus 2, Vero C1008, 48 h

Row | SMILES | IC50 [µM] | IC50 (read-out: pIC50 (converted)) [µM]
1 | CC(C)(CO)[C@@H](O)C(=O)NCCC(=O)O [PANTOTHENIC ACID] | > 20 | > 20
2 | CN(C)CCO [DIMETHYLAMINOETHANOL] | > 20 | > 20
3 | CN(C)c1ccc(C(=C2C=CC(=[N+](C)C)C=C2)c2ccc(N(C)C)cc2)cc1 [GENTIAN VIOLET] | > 20 | > 20
4 | C[C@]12CC[C@H]3[C@@H](CC[C@@]45O[C@@H]4C(O)=C(C#N)C[C@]35C)[C@@H]1CC[C@@H]2O [TRILOSTANE] | > 20 | > 20
5 | CC[C@@H]1[C@H](F)C(=O)N[C@@H]1COc1nccc2cc(C(N)=O)c(OC)cc12 [ZIMLOVISERTIB] | > 20 | > 20
6 | N=C(N)NCCNS(=O)(=O)c1cccc2cnccc12 | > 20 | > 20
7 | CN(C)CCOC(c1ccccc1)c1ccnn1C (stereo unspecified) [CIZOLIRTINE] | > 20 | > 20
8 | CCCCCNC(=N)N/N=C/c1c[nH]c2ccc(OC)cc12 [TEGASEROD] | > 20 | > 20
9 | CC(CN1c2ccccc2Sc2ccc(S(=O)(=O)N(C)C)cc21)N(C)C (stereo unspecified) [FONAZINE] | > 20 | > 20
10 | CCCCCC(O)c1cccc(OCc2ccc3ccccc3n2)c1 (stereo unspecified) [REV-5901] | > 20 | > 20
11 | C/C=C1/C[C@@H](C)[C@](O)(CO)C(=O)OCC2=CCN3CC[C@@H](OC1=O)[C@@H]23 | > 20 | > 20
12 | CC/C(=C(\c1ccc(OCCN(C)C)cc1)c1cccc(O)c1)c1ccccc1 | > 20 | > 20
13 | Cc1ccc(C(=O)N(CCCN)[C@@H](c2nc3cc(Cl)ccc3c(=O)n2Cc2ccccc2)C(C)C)cc1 [ISPINESIB] | > 20 | > 20
14 | N[C@@H](CSCCCO)C(=O)O [FUDOSTEINE] | > 20 | > 20
15 | Cn1cnc2[nH]c(=O)[nH]c(=O)c21 [7-METHYLXANTHINE] | > 20 | > 20
16 | CCN1c2ncc(CCOc3cc[n+]([O-])c4ccccc34)cc2C(=O)N(C)c2cccnc21 [BILR 355] | > 20 | > 20
17 | CCCCCCCCCC(=O)N[C@@H](Cc1c[nH]c2ccccc12)C(=O)N[C@H](CC(N)=O)C(=O)N[C@@H](CC(=O)O)C(=O)N[C@@H]1C(=O)NCC(=O)N[C@@H](CCCN)C(=O)N[C@@H](CC(=O)O)C(=O)N[C@H](C)C(=O)N[C@@H](CC(=O)O)C(=O)NCC(=O)N[C@H](CO)C(=O)N[C@@H]([C@H](C)CC(=O)O)C(=O)N[C@@H](CC(=O)c2ccccc2N)C(=O)O[C@@H]1C | > 20 | > 20
18 | CC(C(O)(Cn1cncn1)c1ccc(F)cc1F)S(C)(=O)=O (stereo unspecified) | > 20 | > 20
19 | c1cnc2c(c1)CC1(CN3CCC1CC3)O2 (stereo unspecified) | > 20 | > 20
20 | CCN(CC)CCOC(=O)C(O)(c1ccccc1)c1ccccc1 [BENACTYZINE] | > 20 | > 20
21 | CC(C)COC(=O)c1ccc(N)cc1 [ISOBUTAMBEN] | > 20 | > 20
22 | CC[C@@H]1CCN[C@H](C(=O)N[C@H]([C@H]2O[C@H](SC)[C@H](O)[C@@H](O)[C@H]2O)[C@H](C)Cl)C1 | > 20 | > 20
23 | N[C@@H](C(=O)N[C@@H]1C(=O)N2C(C(=O)O)=C(Cl)CS[C@H]12)c1ccccc1 [CEFACLOR ANHYDROUS] | > 20 | > 20
24 | CCC1(CCC(C)C)C(=O)NC(=O)NC1=O [AMOBARBITAL] | > 20 | > 20
25 | CN[C@@H](C)C/C=C/c1cncc(OC(C)C)c1 [ISPRONICLINE] | > 20 | > 20
26 | C[C@H](N)C(=O)N[C@H](CCC(N)=O)C(=O)O (H-Ala-[dQ]-OH) | > 20 | > 20
27 | CC(=O)NC(CCC(N)=O)C(=O)O (stereo unspecified) | > 20 | > 20

Row | SMILES | IC50 [µM] | IC50 (read-out: pIC50 (converted)) [µM]
28 | O=C(NC1CCNCC1)c1n[nH]cc1NC(=O)c1c(Cl)cccc1Cl [AT-7519] | > 20 | > 20
29 | CCCN1CCOC2c3cc(O)ccc3CCC21 (stereo unspecified) | > 20 | > 20
30 | O=C(OCCN1CCCCCC1)C(c1ccsc1)C1CCCCC1 (stereo unspecified) | > 20 | > 20
31 | CCOC(=O)c1[nH]c2cc(OC)c(OC)cc2c1CCN1CCN(c2ccccc2)CC1 [ALPERTINE] | > 20 | > 20
32 | CCCCCCCCCCCCN1CCCCCC1=O [LAUROCAPRAM] | > 20 | > 20
33 | CC[C@H](Nc1ncnc2[nH]cnc12)c1nc2cccc(F)c2c(=O)n1-c1ccccc1 [IDELALISIB] | > 20 | > 20
34 | CCN(CCCC(=O)C1CCCCC1)[C@@H](C)Cc1ccc(OC)cc1 [DEXSECOVERINE] | > 20 | > 20
35 | CNC(=O)c1cc(Oc2ccc(NC(=O)Nc3cc(C(C)(C)C)nn3-c3ccc4ncccc4c3)c(F)c2)ccn1 [REBASTINIB] | > 20 | > 20
36 | C[n+]1cccc(C(=O)[O-])c1 [TRIGONELLINE] | > 20 | > 20
37 | CCCCc1ccc2[nH]c(NC(=O)OC)nc2c1 [PARBENDAZOLE] | > 20 | > 20
38 | COc1ccc2c(c1)CCC1C2CCC2(C)C(O)CCC12 (stereo unspecified) | > 20 | > 20
39 | CC(NC(C)(C)C)C(=O)c1cccc(Cl)c1 (stereo unspecified) [BUPROPION] | > 20 | > 20
40 | Cn1cnc2c(F)c(Nc3ccc(Br)cc3F)c(C(=O)NOCCO)cc21 [BINIMETINIB] | > 20 | > 20
41 | c1ccc2c(c1)CCCc1cc(NCCN3CCOCC3)nnc1-2 | > 20 | > 20
42 | O=C1[C@H](CC[C@H](O)c2ccc(F)cc2)[C@@H](c2ccc(O)cc2)N1c1ccc(F)cc1 [EZETIMIBE] | > 20 | > 20
43 | C=C[C@](C)(O)CC[C@H]1C(=C)C[C@H](O)[C@H]2C(C)(C)CCC[C@]12C | > 20 | > 20
44 | Oc1noc2c1CCNC2 [GABOXADOL] | > 20 | > 20
45 | N#Cc1cc(CN2CCC(Nc3ncnc4sc(Cl)cc34)CC2)ccc1F [PRX-08066 FREE BASE] | > 20 | > 20
46 | CN(CC1(C)CCCO1)S(=O)(=O)c1ccc(Cl)c(S(N)(=O)=O)c1 (stereo unspecified) [MEFRUSIDE] | > 20 | > 20
47 | COC1(C)CCC2OC2(C)CCC2C1CC2(C)C (stereo unspecified) [2-METHOXY-5 (6)EPOXY-TETRAHYDROCARYOPHYLLENE] | > 20 | > 20
48 | Oc1c(I)cc(I)c2cccnc12 [IODOQUINOL] | > 20 | > 20
49 | CO[C@@H](C(=O)N1Cc2[nH]nc(NC(=O)c3ccc(N4CCN(C)CC4)cc3)c2C1)c1ccccc1 [DANUSERTIB] | > 20 | > 20
50 | CCSc1ccc2c(c1)N(CCCN1CCN(C)CC1)c1ccccc1S2 [THIETHYLPERAZINE] | > 20 | > 20
51 | Cc1c(Nc2ncccc2C(=O)O)cccc1C(F)(F)F [FLUNIXIN] | > 20 | > 20
52 | CCN(Cc1ccccc1)C(=O)Cn1c(=O)n(C)c2cnc(-c3ccccc3)nc21 | > 20 | > 20
53 | CC1(C)O[C@@H]2C[C@H]3[C@@H]4C[C@H](F)C5=CC(=O)C=C[C@]5(C)[C@@]4(F)[C@@H](O)C[C@]3(C)[C@]2(C(=O)CO)O1 [FLUOCINOLONE ACETONIDE] | > 20 | > 20
